# Laboratory results reported in patent US12397167B2, “Compositions and methods of altering the electric impedance to an alternating electric field” (NOVOCURE GMBH, priority 2019, dated 2025).
# System: clathrin-dependent pathway or macro-pinocytosis pathway
# Test: Effect of endocytosis pathway inhibitors on BTNP accumulation in cytoplasm in response to TTFields
# Type: cell-based
# Details: specific inhibitors of clathrin-dependent or macro-pinocytosis pathway
# From the text: Nanoparticles (NPs) internalization into cells is known to be dependent on particle size and its zeta potential. NPs under 200 nm can be engulfed by cancer cells through clathrin-dependent pathway or macro-pinocytosis pathway. […] The data herein evidences that increased membrane permeability by TTFields can induce BTNP accumulation in cytoplasm of cancer cells.
row,SMILES,accumulation of BTNPs in cytoplasm in response to TTFields
1,CN(C)CCCN1c2ccccc2Sc2ccc(Cl)cc21 [chlorpromazine],did not modulate
2,N=C(N)NC(=O)c1nc(Cl)c(N)nc1N [amiloride],did not modulate
3,C=C1[C@@H](C)[C@H]2[C@H](Cc3ccccc3)NC(=O)[C@]23[C@H](OC(C)=O)/C=C/[C@@](C)(O)C(=O)[C@@H](C)C/C=C/[C@H]3[C@@H]1O [cytochalasin D],did not modulate
